From ChEMBL document CHEMBL1201862, “PubChem BioAssay data set” (2004)
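Briefly, cells in 96-well plates were exposed to five compound concentrations for 48 h, and endpoints were estimated by linear interpolation. GI50 is the concentration that inhibits growth by half.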 Activity calls are given as the source filed them. Cut-off read from the data, not from the text of the source: active = GI50 up to about 1.1 µM and inactive = higher.

Columns and labels:
Experiment in all cases: NCI anticancer screen, dose series, 48 h
M14 = test system: M14
MCF7 = test system: MCF7
EKVX = test system: EKVX
HCC 2998 = test system: HCC 2998
K562 = test system: K562
SF-539 = test system: SF-539
MDA-MB-435 = test system: MDA-MB-435
DU-145 = test system: DU-145
Malme-3M = test system: Malme-3M
HOP-62 = test system: HOP-62
OVCAR-5 = test system: OVCAR-5
NCI-H460 = test system: NCI-H460
SN12C = test system: SN12C
BT-549 = test system: BT-549
OVCAR-8 = test system: OVCAR-8
UACC-257 = test system: UACC-257
HT-29 = test system: HT-29
ACHN = test system: ACHN
CAKI-1 = test system: CAKI-1
MOLT-4 = test system: MOLT-4
U-251 = test system: U-251
MDA-MB-231 = test system: MDA-MB-231
OVCAR-3 = test system: OVCAR-3
SW-620 = test system: SW-620
SR = test system: SR
SF-268 = test system: SF-268
HOP-92 = test system: HOP-92
786-0 = test system: 786-0
PC-3 = test system: PC-3
RXF 393 = test system: RXF 393
T47D = test system: T47D
Hs-578T = test system: Hs-578T
NCI-H23 = test system: NCI-H23
NCI-H226 = test system: NCI-H226
TK-10 = test system: TK-10
HCT-15 = test system: HCT-15
SNB-75 = test system: SNB-75
HL-60 = test system: HL-60
MDA-N = test system: MDA-N
HCT-116 = test system: HCT-116
KM12 = test system: KM12
OVCAR-4 = test system: OVCAR-4
SK-MEL-5 = test system: SK-MEL-5
SNB-19 = test system: SNB-19
SF-295 = test system: SF-295
A498 = test system: A498
SK-MEL-28 = test system: SK-MEL-28
RPMI-8226 = test system: RPMI-8226
UACC-62 = test system: UACC-62
UO-31 = test system: UO-31
NCI-H522 = test system: NCI-H522
A549 = test system: A549
NCI/ADR-RES = test system: NCI/ADR-RES
IGROV-1 = test system: IGROV-1
SK-MEL-2 = test system: SK-MEL-2
SK-OV-3 = test system: SK-OV-3
COLO 205 = test system: COLO 205
LOX IMVI = test system: LOX IMVI
CCRF-CEM = test system: CCRF-CEM

## Cc1ccc(Nc2n[nH]c(NS(=O)(=O)c3cc(C)c(Cl)cc3S)n2)cc1
M14
  GI50: > 100 µM (inactive)
MCF7
  GI50: > 100 µM (inactive)
EKVX
  GI50: > 100 µM (inactive)
HCC 2998
  GI50: > 100 µM (inactive)
K562
  GI50: > 100 µM (inactive)
SF-539
  GI50: > 100 µM (inactive)
MDA-MB-435
  GI50: > 100 µM (inactive)
DU-145
  GI50: > 100 µM (inactive)
Malme-3M
  GI50: > 100 µM (inactive)
HOP-62
  GI50: > 100 µM (inactive)
OVCAR-5
  GI50: > 100 µM (inactive)
NCI-H460
  GI50: > 100 µM (inactive)
SN12C
  GI50: > 100 µM (inactive)
BT-549
  GI50: > 100 µM (inactive)
OVCAR-8
  GI50: > 100 µM (inactive)
UACC-257
  GI50: > 100 µM (inactive)
HT-29
  GI50: > 100 µM (inactive)
ACHN
  GI50: > 100 µM (inactive)
CAKI-1
  GI50: > 100 µM (inactive)
MOLT-4
  GI50: > 100 µM (inactive)
U-251
  GI50: > 100 µM (inactive)
MDA-MB-231
  GI50: > 100 µM (inactive)
OVCAR-3
  GI50: > 100 µM (inactive)
SW-620
  GI50: > 100 µM (inactive)
SR
  GI50: > 100 µM (inactive)
SF-268
  GI50: > 100 µM (inactive)
HOP-92
  GI50: > 100 µM (inactive)
786-0
  GI50: > 100 µM (inactive)
PC-3
  GI50: > 100 µM (inactive)
RXF 393
  GI50: > 100 µM (inactive)
T47D
  GI50: > 100 µM (inactive)
Hs-578T
  GI50: > 100 µM (inactive)
NCI-H23
  GI50: > 100 µM (inactive)
NCI-H226
  GI50: > 100 µM (inactive)
TK-10
  GI50: > 100 µM (inactive)
HCT-15
  GI50: > 100000 nM
SNB-75
  GI50: > 100 µM (inactive)
HL-60
  GI50: > 100 µM (inactive)
MDA-N
  GI50: > 100 µM (inactive)
HCT-116
  GI50: > 100 µM (inactive)
KM12
  GI50: > 100 µM (inactive)
OVCAR-4
  GI50: > 100 µM (inactive)
SK-MEL-5
  GI50: > 100 µM (inactive)
SNB-19
  GI50: > 100 µM (inactive)
SF-295
  GI50: > 100 µM (inactive)
A498
  GI50: > 100 µM (inactive)
SK-MEL-28
  GI50: > 100 µM (inactive)
RPMI-8226
  GI50: > 100 µM (inactive)
UACC-62
  GI50: > 100 µM (inactive)
UO-31
  GI50: > 100 µM (inactive)
NCI-H522
  GI50: > 100 µM (inactive)
A549
  GI50: > 100 µM (inactive)
NCI/ADR-RES
  GI50: > 100 µM (inactive)
IGROV-1
  GI50: > 100 µM (inactive)
SK-MEL-2
  GI50: > 100 µM (inactive)
SK-OV-3
  GI50: > 100 µM (inactive)
COLO 205
  GI50: > 100 µM (inactive)
LOX IMVI
  GI50: > 100 µM (inactive)
CCRF-CEM
  GI50: > 100 µM (inactive)

## CCOC(=O)/C=C(\C(=O)OCC)n1cc(C)c(=O)n(Cc2cnnn2CCCCOC(C)=O)c1=O
M14
  GI50: 20.9 µM (inactive)
MCF7
  GI50: 4.78 µM (inactive)
EKVX
  GI50: 11.3 µM (inactive)
HCC 2998
  GI50: 21 µM (inactive)
K562
  GI50: 2.64 µM (inactive)
SF-539
  GI50: 2.36 µM (inactive)
MDA-MB-435
  GI50: 7.69 µM (inactive)
DU-145
  GI50: > 41.7 µM (inactive)
Malme-3M
  GI50: 1.82 µM (inactive)
HOP-62
  GI50: 27 µM (inactive)
OVCAR-5
  GI50: 17.4 µM (inactive)
NCI-H460
  GI50: 12.4 µM (inactive)
SN12C
  GI50: 12.1 µM (inactive)
BT-549
  GI50: 8.28 µM (inactive)
OVCAR-8
  GI50: 3.37 µM (inactive)
UACC-257
  GI50: 15.7 µM (inactive)
HT-29
  GI50: 5.98 µM (inactive)
ACHN
  GI50: 2.06 µM (inactive)
CAKI-1
  GI50: 3.23 µM (inactive)
MOLT-4
  GI50: 2.64 µM (inactive)
U-251
  GI50: 17.3 µM (inactive)
MDA-MB-231
  GI50: 22.2 µM (inactive)
OVCAR-3
  GI50: 13.3 µM (inactive)
SW-620
  GI50: 2.32 µM (inactive)
SR
  GI50: 1.9 µM (inactive)
SF-268
  GI50: 15.7 µM (inactive)
HOP-92
  GI50: 2.1 µM (inactive)
786-0
  GI50: 2.96 µM (inactive)
PC-3
  GI50: 16.4 µM (inactive)
RXF 393
  GI50: 2.7 µM (inactive)
T47D
  GI50: 21.7 µM (inactive)
Hs-578T
  GI50: 17 µM (inactive)
NCI-H23
  GI50: 17.1 µM (inactive)
NCI-H226
  GI50: 7.43 µM (inactive)
TK-10
  GI50: 5.94 µM (inactive)
HCT-15
  GI50: 2840 nM
SNB-75
  GI50: 18 µM (inactive)
HL-60
  GI50: 1.91 µM (inactive)
MDA-N
  GI50: 20.3 µM (inactive)
HCT-116
  GI50: 6.53 µM (inactive)
KM12
  GI50: 16.7 µM (inactive)
OVCAR-4
  GI50: 19.2 µM (inactive)
SK-MEL-5
  GI50: 17.1 µM (inactive)
SNB-19
  GI50: 25.4 µM (inactive)
SF-295
  GI50: 32.1 µM (inactive)
A498
  GI50: 22.2 µM (inactive)
SK-MEL-28
  GI50: 7.35 µM (inactive)
RPMI-8226
  GI50: 7.36 µM (inactive)
UACC-62
  GI50: 15 µM (inactive)
UO-31
  GI50: 15 µM (inactive)
NCI-H522
  GI50: 1.38 µM (inactive)
A549
  GI50: 24.5 µM (inactive)
NCI/ADR-RES
  GI50: 8.79 µM (inactive)
IGROV-1
  GI50: 12.7 µM (inactive)
SK-MEL-2
  GI50: 22.1 µM (inactive)
SK-OV-3
  GI50: > 62.4 µM (inactive)
COLO 205
  GI50: 2.09 µM (inactive)
LOX IMVI
  GI50: 4.06 µM (inactive)
CCRF-CEM
  GI50: 0.661 µM (active)
